Measurements: publication PMC12120022, “Discovery and chemical optimisation of a potent, Bi-cyclic antimicrobial inhibitor of Escherichia coli PBP3” (Communications Biology, 2025)
Where a SMILES comes first, the peptide text is derived from it.

molecular target: T1, EcPBP3 (Escherichia coli, UniProt P0AD68); assay: SPR binding assay on immobilised EcPBP3; settings: 37 °C, kinetic fitting; NB = no binding at 2500 nM (Tables S-4, S-5) or 5000 nM (Table 1); read-out: Kd (nM) by SPR (geomean)
T1 construct: For assays, selections and SPR a construct with residues 60–588 which has the N-terminal domain, but not the transmembrane helix, was used; made in house
T1 sequence (P0AD68 60-588): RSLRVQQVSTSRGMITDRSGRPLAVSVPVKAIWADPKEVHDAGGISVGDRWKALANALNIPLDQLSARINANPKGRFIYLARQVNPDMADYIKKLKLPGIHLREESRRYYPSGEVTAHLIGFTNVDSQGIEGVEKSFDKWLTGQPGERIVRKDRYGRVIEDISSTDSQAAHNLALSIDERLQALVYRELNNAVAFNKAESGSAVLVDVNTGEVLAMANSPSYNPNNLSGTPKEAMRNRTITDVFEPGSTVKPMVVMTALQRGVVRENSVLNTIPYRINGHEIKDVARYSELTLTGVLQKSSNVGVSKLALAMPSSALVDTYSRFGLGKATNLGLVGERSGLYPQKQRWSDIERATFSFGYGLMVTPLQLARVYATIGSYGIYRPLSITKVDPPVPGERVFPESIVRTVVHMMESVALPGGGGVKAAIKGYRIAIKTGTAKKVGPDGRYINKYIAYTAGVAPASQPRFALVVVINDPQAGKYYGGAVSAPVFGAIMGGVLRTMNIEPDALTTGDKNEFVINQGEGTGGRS
Method: Surface plasmon resonance (SPR) assays were performed using EcPBP3 immobilized on CM5 sensor chips (GE Healthcare) via amine-coupling chemistry in assay buffer (10 mM HEPES pH 8.0, 200 mM NaCl, 0.05% (v/v) surfactant P20). The chip surface was activated by injection (10 μL min^–1) of 0.4 M EDC and 0.1 M NHS (in a 1:1 ratio) with a 7 min contact time. Protein was diluted to 25 μg mL^–1 in 10 mM MOPS (pH 7.0) and injected over the activated sensor chip surface to reach immobilization of 1500-2500 response units. Excess hydroxysuccinimidyl groups on the chip surface were deactivated by injection (10 μL min^–1) of 1 M ethanolamine hydrochloride pH 8.0 with a 7 min contact time. Reference flow cells were prepared as described, but without ligand (EcPBP3 protein).
Binding analysis runs were performed at 37 °C in running buffer (10 mM HEPES pH 8.0, 200 mM NaCl, 0.05% (w/v) Tween-20, 2% (v/v) DMSO). Test compounds (and control runs of buffer only) were injected in running buffer over the EcPBP3 chip and reference flow cell, at flow rate of 50 μL min^–1 for 150 s contact time and 2400 s dissociation time. Each injection was followed by a wash with 50% (v/v) DMSO. All compounds were tested in at least two independent biological replicates unless otherwise stated.
Raw sensorgrams data were solvent-corrected, reference-subtracted and blank-buffer-subtracted (double-referencing) before kinetic and affinity analysis to account for non-specific binding and injection artifacts. Equilibrium dissociation constant (Kd) values was determined using the Biacore™ Insight Evaluation Software (version 4.0.8 or version 5.0.17) using kinetic fitting. Kd values presented are the geometric mean of at least two biological replicates.

Structure (SMILES)	Kd [nM]
CC(C)[C@@H]1NC(=O)[C@H](Cc2c[nH]c3ccccc23)NC(=O)[C@@H]2CCCN2C(=O)[C@@H]2CSCCC(=O)N3CN(CN(C3)C(=O)CCSC[C@H](NC(=O)[C@H](C)N)C(=O)N[C@@H](CO)C(=O)N[C@@H](Cc3ccncc3)C(=O)N3CCC[C@H]3C(=O)N[C@@H](CCCCN)C(=O)N2)C(=O)CCSC[C@@H](C(=O)N[C@@H](C)C(N)=O)NC(=O)CNC(=O)[C@H](CCC(=O)O)NC1=O [Peptide 59] (HELM PEPTIDE1{A.C.S.[O=C([C@H](Cc1ccncc1)N[*:1])[*:2]].P.K.C.P.W.V.E.G.C.A.[am]}|CHEM1{[O=C(CC[*:1])N1CN(C(=O)CC[*:2])CN(C(=O)CC[*:3])C1]}$PEPTIDE1,CHEM1,2:R3-1:R1|PEPTIDE1,CHEM1,7:R3-1:R2|PEPTIDE1,CHEM1,13:R3-1:R3$$$V2.0)	121
CC(C)[C@@H]1NC(=O)[C@H](Cc2c[nH]c3cc(Cl)ccc23)NC(=O)[C@@H]2CCCN2C(=O)[C@@H]2CSCCC(=O)N3CN(CN(C3)C(=O)CCSC[C@H](NC(=O)[C@H](C)N)C(=O)N[C@@H](CO)C(=O)N[C@@H](Cc3ccccc3)C(=O)N3CCC[C@H]3C(=O)N[C@@H](CCCCN)C(=O)N2)C(=O)CCSC[C@@H](C(=O)N[C@@H](C)C(N)=O)NC(=O)CNC(=O)[C@H](CCC(=O)O)NC1=O [Peptide 65]	0.269
CC(C)[C@@H]1NC(=O)[C@H](Cc2c[nH]c3ccccc23)NC(=O)[C@@H]2CCCN2C(=O)[C@@H]2CSCCC(=O)N3CN(CN(C3)C(=O)CCSC[C@H](NC(=O)[C@H](C)N)C(=O)N[C@@H](CO)C(=O)N[C@@H](Cc3ccccc3F)C(=O)N3CCC[C@H]3C(=O)N[C@@H](CCCCN)C(=O)N2)C(=O)CCSC[C@@H](C(=O)N[C@@H](C)C(N)=O)NC(=O)CNC(=O)[C@H](CCC(=O)O)NC1=O [Peptide 56]	56.6
CC(C)[C@@H]1NC(=O)[C@H](Cc2c[nH]c3ccccc23)NC(=O)[C@@H]2CCCN2C(=O)[C@@H]2CSCCC(=O)N3CN(CN(C3)C(=O)CCSC[C@H](NC(=O)[C@H](C)N)C(=O)N[C@@H](CO)C(=O)N[C@@H](Cc3cccc(F)c3)C(=O)N3CCC[C@H]3C(=O)N[C@@H](CCCCN)C(=O)N2)C(=O)CCSC[C@@H](C(=O)N[C@@H](C)C(N)=O)NC(=O)CNC(=O)[C@H](CCC(=O)O)NC1=O [Peptide 55]	16.8
Cc1ccccc1C[C@@H]1NC(=O)[C@H](CO)NC(=O)[C@@H](NC(=O)[C@H](C)N)CSCCC(=O)N2CN3CN(C2)C(=O)CCSC[C@H](NC(=O)[C@H](CCCCN)NC(=O)[C@@H]2CCCN2C1=O)C(=O)N1CCC[C@H]1C(=O)N[C@@H](Cc1c[nH]c2ccccc12)C(=O)N[C@@H](C(C)C)C(=O)N[C@@H](CCC(=O)O)C(=O)NCC(=O)N[C@H](C(=O)N[C@@H](C)C(N)=O)CSCCC3=O [Peptide 57]	22.3
CC(C)[C@@H]1NC(=O)[C@H](Cc2c[nH]c3ccccc23)NC(=O)[C@@H]2CCCN2C(=O)[C@@H]2CSCCC(=O)N3CN(CN(C3)C(=O)CCSC[C@H](NC(=O)[C@H](C)N)C(=O)N[C@@H](CO)C(=O)N[C@@H](Cc3ccccn3)C(=O)N3CCC[C@H]3C(=O)N[C@@H](CCCCN)C(=O)N2)C(=O)CCSC[C@@H](C(=O)N[C@@H](C)C(N)=O)NC(=O)CNC(=O)[C@H](CCC(=O)O)NC1=O [Peptide 60] (HELM PEPTIDE1{A.C.S.[O=C([C@H](Cc1ccccn1)N[*:1])[*:2]].P.K.C.P.W.V.E.G.C.A.[am]}|CHEM1{[O=C(CC[*:1])N1CN(C(=O)CC[*:2])CN(C(=O)CC[*:3])C1]}$PEPTIDE1,CHEM1,2:R3-1:R1|PEPTIDE1,CHEM1,7:R3-1:R2|PEPTIDE1,CHEM1,13:R3-1:R3$$$V2.0)	122
COc1ccc2[nH]cc(C[C@@H]3NC(=O)[C@@H]4CCCN4C(=O)[C@@H]4CSCCC(=O)N5CN(CN(C5)C(=O)CCSC[C@H](NC(=O)[C@H](C)N)C(=O)N[C@@H](CO)C(=O)N[C@@H](Cc5ccccc5)C(=O)N5CCC[C@H]5C(=O)N[C@@H](CCCCN)C(=O)N4)C(=O)CCSC[C@@H](C(=O)N[C@@H](C)C(N)=O)NC(=O)CNC(=O)[C@H](CCC(=O)O)NC(=O)[C@H](C(C)C)NC3=O)c2c1 [Peptide 63]	175

same assay, conditions: hydrophobic extension of Trp6, relative to parent peptide

Structure (SMILES)	Improvement in binding affinity
CC(C)[C@@H]1NC(=O)[C@H](Cc2c[nH]c3cc(Cl)ccc23)NC(=O)[C@@H]2CCCN2C(=O)[C@@H]2CSCCC(=O)N3CN(CN(C3)C(=O)CCSC[C@H](NC(=O)[C@H](C)N)C(=O)N[C@@H](CO)C(=O)N[C@@H](Cc3ccccc3)C(=O)N3CCC[C@H]3C(=O)N[C@@H](CCCCN)C(=O)N2)C(=O)CCSC[C@@H](C(=O)N[C@@H](C)C(N)=O)NC(=O)CNC(=O)[C@H](CCC(=O)O)NC1=O [Peptide 65]	More than 10 fold
